What was measured:
[1] = system: coronary artery diameter (left anterior descending coronary artery); experiment: Epicardial endothelial function: change in coronary artery diameter after intracoronary acetylcholine; format: in vivo, human; details: maximal dose of acetylcholine, unadjusted
Protocol: (§1) After diagnostic angiography and exclusion of significant obstructive coronary artery disease, endothelium-dependent coronary vasoactivity was assessed as described elsewhere (Suwaidi et al., Circulation, 101:948-954 (2000) and Hasdai et al., Circulation, 96:3390-3395 (1997)). In brief, a Doppler guidewire (Flowire, Volcano Inc.) within a coronary-infusion catheter (Ultrafuse, SciMed Life System) was positioned into the midportion of the left anterior descending coronary artery. Intra-coronary acetylcholine at increasing concentrations of 10^−6, 10^−5, and 10^−4 M was infused to obtain effective coronary concentrations of 10^−8, 10^−7, and 10^−6 M, respectively. Each dose of acetylcholine was infused for three minutes through the infusion catheter into the left anterior descending coronary artery to assess endothelium dependent vasoreactivity. Hemodynamic data, Doppler measurements, and a coronary angiogram were obtained after each infusion. Coronary artery diameter was measured by an independent investigator in the segment 5 mm distal to the tip of the Doppler wire using a computer-based image analysis system. Average peak velocity (APV) was derived from the Doppler flow velocity spectra, and coronary blood flow (CBF) was determined as π(coronary artery diameter/2)^2×(APV/2). […] Endothelium-independent microvascular function was determined by the coronary flow reserve (CFR), which is the ratio of the APV at maximal hyperemia to the APV at baseline. […] Lp-PLA2 levels were measured in plasma aliquots, which were obtained at the time of coronary angiography and stored at −70° C., using an enzyme-linked immunoassay (PLAC™ test, diaDexus, Inc; Caslake et al., Atherosclerosis, 150:413-419 (2000)). […]
Epicardial endothelial function as determined by percentage change in coronary artery diameter in response to the maximal dose of acetylcholine was measured (FIG. 2). […]

[2] = system: coronary blood flow (left anterior descending coronary artery); experiment: Microvascular endothelial function: change in coronary blood flow after intracoronary acetylcholine; format: in vivo, human; details: maximal dose of intracoronary acetylcholine, unadjusted
Protocol: as §1
Microvascular endothelial function as determined by percentage change in coronary blood flow in response to the maximal dose of intracoronary acetylcholine was measured (FIG. 1). […]

[3] = patients in Lp-PLA2 Tertile 1 (110-181.4 ng/mL, N=57)
[4] = patients in Lp-PLA2 Tertile 2 (181.48-239.6 ng/mL, N=58)
[5] = patients in Lp-PLA2 Tertile 3 (240-443 ng/mL, N=57)

CC(=O)OCC[N+](C)(C)C [acetylcholine]
percentage change in coronary artery diameter [1, 3]: −9.5±15.2%
percentage change in coronary artery diameter [1, 4]: −14.1±14.7%
percentage change in coronary artery diameter [1, 5]: −23.3±25.1%
percentage change in coronary blood flow [2, 3]: 78.4±15.2%
percentage change in coronary blood flow [2, 4]: 63.8±73.2%
percentage change in coronary blood flow [2, 5]: 32.0±71.7%

— patent publication US20070020716A1, “Coronary Endothelial Dysfunction” (priority 2005, published 2007)
